# Data published in patent US20130205659A1, “METHOD OF CONTROLLING FUSARIUM VIGULIFORME AND SOYBEAN SUDDEN DEATH SYNDROME USING THIABENDAZOLE” (SYNGENTA CROP PROTECTION LLC, priority 2010, published 2013).
# Test system: Fusarium virguliforme
# Assay: Growth chamber soybean sudden death syndrome seed treatment test, soil inoculated with F. virguliforme spores, visual disease severity rating
# Type: in vivo
# Conditions: for reduction in disease severity: seed treatment, versus control; for Sudden death syndrome Disease Severity (1-9): seed treatment (thiabendazole 5 g ai/100 kg seed; 2.5 g fludioxonil + 3.75 g mefenoxam/100 kg seed), averaged across five growth chamber runs, Njiti et al. scale
# From the text: Soybean cultivars NK-529-J6 and NK-533-T4 where used for testing. Cultivar NK-529-J6 is labeled as partially resistant to SDS and cultivar NK-533-T4 is labeled susceptible to SDS (Syngenta Seeds, Minneapolis, Minn.). Thiabendazole fungicide seed treatment was applied to both cultivars at a rate of 5 g a.i./100 kg seed. A mefenoxam and fludioxonil combination fungicide seed treatment was also applied at a rate of 3.75 g a.i./100 kg seed and 2.5 g a.i./100kg seed, respectively. Three pathogenic isolates of F. virguliforme (Scherm et al., 1978) were used to inoculate grain sorghum (Sorghum bicolor (L.)) following the methods of Farris Neto et al. (2006). Isolates were grown on one third strength Difco Potato Dextrose Agar (PDA) growth medium. After 18 days, isolate growth on the PDA was divided into thirds and placed into a bag containing 2.27 kg of sorghum seed and allowed to incubate at room temperature for 15 days. Five experiments were conducted in a growth chamber. Each experiment was a randomized complete block design with eight replications. A 1:1 ratio of soil and sand medium was mixed together thoroughly, and steam sterilized at 121° C. for one hour. Upon sterilization of the soil medium 150 g of soil and 2.25 g of yellow cornmeal was weighed and mixed together for each conetainer. A spore suspension was prepared using 17 to 20 day old isolates of F. virguliforme grown on PDA media. Each isolate was aseptically flooded with sterilized, de-ionized water and scraped from the PDA plates causing the release of F. virguliforme spores. Each isolate was then strained through cheesecloth and mixed together to produce the spore suspension. Spore concentrations were determined using a hemacytometer, and concentrations were adjusted to produce 10 000 spores g soil^−1. After the spore concentration was determined the spore suspension was diluted to a volume of 13 ml of spore suspension per conetainer. The soil was then inoculated with the diluted spore suspension (Gongora-Canul and Leandro, 2007). Once the soil was inoculated, conetainers were filled level full with the inoculated soil, and then planted with two seeds of each variety by seed treatment combination (after emergence, thinned to one plant per conetainer) and placed in the growth chamber. Growth chambers were set at 17° C. for one week then changed to 24° C., and maintained for the remainder of the experiment. Growth chambers were set to 17° C. to help slow the germination of the soybean and therefore increase the probability for infection of F. virguliforme to take place (Gongora-Canul and Leandro, 2008). […]
# Data collection for the growth chambers consisted of visual disease ratings of SDS symptom severity following the methods of Njiti et al. (1996). […] Disease incidence was recorded as a presence/absence rating.
compound,measurement,setting,value
"c1ccc2[nH]c(-c3cscn3)nc2c1 [Thiabendazole, thiabendazole]",reduction in disease severity,soybean cultivar NK-533-T4,35%
same,Sudden death syndrome Disease Severity (1-9),soybean cultivar NK-S29-J6 (partially resistant to SDS),0.96
same,reduction in disease severity,soybean cultivar NK-S29-J6 (printed NK-29-J6),25%
same,Sudden death syndrome Disease Severity (1-9),"soybean cultivar NK-S33-T4 (SDS susceptible), LSD (0.05) 0.39",1.08
